According to patent publication US11179452B2, “Antigen specific multi epitope vaccines” (priority 2006, dated 2021):
No end group written: not given here.

Key:
Type in all cases: cell-based, human
[1] = tested on: ImMucin specific T-cell subpopulation; experiment: Proliferation of the ImMucin-specific T-cell subpopulation after three stimulations; conditions: one out of two experiments, four donors
Excerpt: (§1) Thawed PBLs underwent 1st stimulation with ImMucin pulsed Autologues DC at a ratio of 20:1 and cultured for 7 days in dedicated T cell Medium. T cell medium contained RPMI medium supplemented with 10% FCS, L-Glutamine, Sodium Pyruvate, MEM-EAGLE non-essential amino-acids, HEPES and Gentamycin Sulphate (Bet-Haemek Industries, IL) as well as with 50 IU/ml of recombinant IL-7 (Cytolab IL). For the second stimulation, PBL were transferred to adherent autologues ImMucin-pulsed PBMC and cultured for additional 5 days in T cell Medium. At the end of the 5 days, medium was partial replaced with fresh medium containing 1 ug/ml of ImMucin and 50 IU/ml IL-2 for a third stimulation of 48 h at 37° C. Following the last stimulation ImMucin T cell line was checked for immune activation properties.
(§2) Proliferation analysis was conducted in three different methods. In all three methods, plates were cultured for 3-5 days under visual control and then 0.5 […]Cu/well of 3[H] (Amersham) was added for additional culture of to 18 h at 37° C. In the last step, plates were harvested and the radioactive counts were measured in a □ counter. • 1. DC indirect presentation: In the first method, 100 µl of 2×10^6 thawed PBL were placed in U-shape Bottom 96 well plate (Nunc) with RPMI medium supplemented with 5% H AB serum, L-Glutamine, Sodium Pyruvate, MEM-EAGLE non-essential amino-acids, HEPES and Gentamycin. At the next stage 100 µl of 25×10^4 peptide-pulsed DC were added to each three wells of PBL and underwent proliferation analysis as described above. • 2. PBL direct presentation: In the 2nd method, 100 µl of 2×10^6 PBL were placed in Flat Bottom 96 well plates (Corning) and stimulated with different concentrations (0.05 ug/ml-2 ug/ml) of peptides. In the next step the cells underwent proliferation analysis as described above. • 3. PBMC direct presentation: In third method PNMC were used under similar conditions as described for the second method.
(§3) For that purpose, an enriched ImMucin-specific T cell subpopulation was produced via repeated stimulation with ImMucin. The specificity of the subpopulation for ImMucin, as well as to the other VXL epitopes, was examined using proliferation assays, cytokine release assays, FACS analysis in which the percentage and type of cells enriched during the enrichment process was analyzed, and using a CTL assay against selected target cells.
(§4) For producing the specific T cell subpopulation PBL were stimulated three times for 7, 5 and 2 days with ImMucin presented via DC and PBMC. Following the 3rd stimulation the cells were evaluated against the different VXL epitopes.

[2] = tested on: T-Cell specific subpopulation (Clones); experiment: ELISA of cytokine secretion by the T-cell specific subpopulation (clones) stimulated with peptides; conditions: two experiments, four donors
Excerpt: as §1
(§5) Cytokine release was studied during the culture of stimulated T-cells. The evaluated samples were collected from the T cell culture medium on day 2, 3, and 5 and stored until use at −20° C.
(§6) […] of the selected capture antibody (e.g. anti-Hu IFN-Gamma, or anti-Hu TNF-alfa or anti IL-2) were added to each well at the final concentration of 5 μg/ml in PBS. Plates were incubated for 2 h at R.T. or over night at 4° C. Next, […] of blocking solution were added for an incubation of 2 h at R.T. […] of evaluated samples were added in duplicate into 2 wells for 2 hours at RT. After 2 h of incubation at R.T plates were washed λ4 times in washing solution. In the next step, a Biotin-conjugated detection antibody (relevant to coated antibody) was added at a final concentration of 10 μg/ml in total volume of 100 μl for 1 h at R.T. Finally, 100 μl/well working dilution (1:10000 in Blocker solution) of Streptavidin-HRP were added to each well and incubated for 1 h at R.T.
(§7) Plates were washed λ6 times with PBS-Tween (0.4%) and 100 μl/well of TMB/E Solution (CHEMICON, Catalog #ES001) was added. The plates were then exposed until blue color appeared in the wells of the positive control and no color was detected in the blank wells. To stop the color reaction, 50 μl/well of 10% of Sulfuric acid was added. The plates were counted in ELISA-Reader using a 450 nm filter.
as §3, §4

PBL [3] = experiment: ELISA of cytokine secretion by PBL stimulated once with peptide-pulsed DC
Experimental: (§8) Human PBMC were separated from buffy coat samples of naive donors using Ficoll UNI-SEPmaxi tube. Separated cells were suspended in RPMI medium supplemented with 10% FCS, L-Glutamine, Sodium Pyruvate, MEM-EAGLE non-essential amino-acids, HEPES and Gentamycin Sulphate (Bet-Haemek Industries, IL) and cultivated for 4 h at 37° C. in a culture dish (Corning 150 mm×25 mm). Adherent cells were collected and cultured for 7 days in serum free DCCM-1 medium supplemented with L-Glutamine, huIL-4 (1000 IU/ml) (Cytolab IL) and GM-CSF-80 ug/ml (Cytolab IL). On day seven floating cells were collected and loaded with 50 ug/ml of examined peptide for 18 h at 37° C.
as §5, §6, §7

PBL [4] = experiment: Proliferation of PBL, direct presentation of peptide without APC; conditions: for Optimal dose Direct no APC: optimal dose required for PBL activation, six donors; for Optimal dose Direct no APC / Peak of Proliferation (Hours) Direct no APC: average of 5 experiments; for Peak of Proliferation (Hours) Direct no APC: visual inspection daily during 5 days
Experimental: In all three methods, plates were cultured for 3-5 days under visual control and then 0.5 □Cu/well of 3[H] (Amersham) was added for additional culture of to 18 h at 37° C. […] DC indirect presentation: In the first method, 100 µl of 2×10^6 thawed PBL were placed in U-shape Bottom 96 well plate (Nunc) with RPMI medium supplemented with 5% H AB serum, L-Glutamine, Sodium Pyruvate, MEM-EAGLE non-essential amino-acids, HEPES and Gentamycin. At the next stage 100 µl of 25×10^4 peptide-pulsed DC were added to each three wells of PBL and underwent proliferation analysis as described above. • 2. PBL direct presentation: In the 2nd method, 100 µl of 2×10^6 PBL were placed in Flat Bottom 96 well plates (Corning) and stimulated with different concentrations (0.05 ug/ml-2 ug/ml) of peptides. In the next step the cells underwent proliferation analysis as described above. • 3. PBMC direct presentation: In third method PNMC were used under similar conditions as described for the second method.
Direct presentation of peptides to PBL without any APC

PBL [5] = experiment: Proliferation of PBL, DC indirect presentation (peptide-pulsed autologous DC); conditions: for IS (SI of the peptides as indicated in Table 7): one out of five experiments; for IS (SI of the peptides as indicated in Table 7) / Optimal dose via DC: six donors; for Optimal dose via DC: optimal dose required for PBL activation; for Optimal dose via DC / Peak of Proliferation (Hours) via DC: average of 5 experiments; for Peak of Proliferation (Hours) via DC: visual inspection by light microscopy daily during 5 days; for IS (as indicated in Table 12): two donors
Experimental: as §8, §2
In the first set of experiments, the 21mer ImMucin, its different 9mer epitopes and other control epitopes (Table 3) were evaluated in proliferation assays with the aim of finding their optimal mode of presentation, stimulated dose as well as their peak of activity (time wise).
To evaluate the most efficient method for priming of PBLs with the different peptides, the following methods were compared:
a. In-direct presentation of the peptide via Autologues-pulsed DC
(§9) Five experiments were performed according to the protocol described in material and methods with buffy-coat enriched PBLs obtained from six different naive donors (obtained from the Israeli blood bank).

PBMC = experiment: Proliferation, direct presentation of peptide via PBMC (monocytes); conditions: for PBL Index of stimulation (SI) via PBMC: naive donors, representative of 5 experiments; for Optimal dose via PBMC: optimal dose required for PBL activation, six donors; for Optimal dose via PBMC / Peak of Proliferation (Hours) via PBMC: average of 5 experiments; for Peak of Proliferation (Hours) via PBMC: visual inspection daily during 5 days
Experimental: as §2
b. Direct presentation of the peptides via PBMC i.e. monocytes
as §9

[6] = peptide DC ratio 16:1, one out of five experiments, six donors
[7] = naive donors, representative of 5 experiments
[8] = naive donors, CPM sample / CPM control, representative of 5 experiments
[9] = peptide pulsed DC ratio 16:1, one out of two experiments, two donors (Table 12)
[10] = average of two healthy donors (Table 11)

Molecule | IS (Average) [1] | IS (Range) [1] | IL-2 % of clones [2] [%] | IL-2 Range [2] [ng/mL] | INF-gamma % of clones [2] [%] | INF-gamma Range [2] [ng/mL] | TNF-Alfa % of clones [2] [%] | TNF-Alfa Range [2] [ng/mL] | IFN-gamma (PBL [3]; [6]) [ng/mL] | IL-2 (PBL [3]; [6]) [ng/mL] | PBL Index of stimulation (SI) Direct no APC (PBL [4]; [7]) | Optimal dose Direct no APC (PBL [4]) | Peak of Proliferation (Hours) Direct no APC (PBL [4]) | PBL Index of stimulation (SI) via DC (PBL [5]; [8]) | Optimal dose via DC (PBL [5]) | Peak of Proliferation (Hours) via DC (PBL [5]) | PBL Index of stimulation (SI) via PBMC (PBMC) | Peak of Proliferation (Hours) via PBMC (PBMC) | PBL Index of stimulation (SI) Direct no APC (PBL [4]; [10]) | PBL Index of stimulation (SI) via DC (PBL [5]; [10]) | also measured
CSCC[C@H](N)C(=O)N[C@@H](CC(C)C)C(=O)N[C@@H](CC(C)C)C(=O)N[C@@H](C)C(=O)N[C@H](C(=O)N[C@@H](CC(C)C)C(=O)N[C@@H](Cc1ccc(O)cc1)C(=O)N[C@@H](CS)C(=O)N[C@@H](CC(C)C)C(=O)O)C(C)C [VXL-11, MLLAVLYCL, reference compound] | 1.14 | 1-1.28 | 0 | 0 | 33 | 2.2 to 4.7 | 0 | 0 | 0 | 0 | 0 | No Influence | No proliferation | 1.65 | 12.5-25 × × 10e6/well | 96 h | 1.25 | 96 h | – | – | IS (SI of the peptides as indicated in Table 7) (PBL [5]): 1.65; Optimal dose via PBMC (PBMC): 0.05 to 1 µg/mL
MAARAVFLAL SAQLLQA (MAARAVFLALSAQLLQA; listed as Homo sapiens) [VXL-102, signal peptide vaccine derived from melanoma associated TAA BAGE] | – | – | – | – | – | – | – | – | – | – | – | – | – | – | – | – | – | – | 0 | – | TNF-Alfa (PBL [3]; [9]): 15.5 ng/mL; IS (as indicated in Table 12) (PBL [5]): 1.9
MWATQGLAVALALSVLPGSRA (MWATQGLAVALALSVLPGSRA; listed as Homo sapiens) [VXL-101, signal peptide vaccine derived from ARMET] | – | – | – | – | – | – | – | – | – | – | – | – | – | – | – | – | – | – | 0 | 2.8 | IL-2 (PBL [3]; [9]): 0 ng/mL; TNF-Alfa (PBL [3]; [9]): 10.5 ng/mL; PBL Index of stimulation (SI) via DC (PBL [5]; average of two healthy donors (Table 11), listed as Armet): highest SI; IS (as indicated in Table 12) (PBL [5]): 2.8
PADREAGVAA WTLKAAA (PADREAGVAAWTLKAAA) [VXL-14, reference compound] | – | – | – | – | – | – | – | – | – | – | – | – | – | – | – | – | – | – | 0 | 2.94 | –
SPFFLLLLL [VXL-5, SPFFLLLLL] | 3.575 | 2.75-4.4 | 0 | 0 | 33 | 2.75 to 5.5 | 50 | 3.84 to 9.2 | 0 | – | 0 | No Influence | No proliferation | 3.73 | 12.5-25 × × 10e6/well | 48-72 h^ | 1.8 | 48-72 h^ | – | – | TNF-Alfa (PBL [3]; [6]): 14.8 ng/mL; TNF-Alfa (PBL [3]; peptide DC ratio 16:1, one out of five experiments, six donors, listed as VXL5): highest cytokine release; IS (SI of the peptides as indicated in Table 7) (PBL [5]): 3.74
STPPVHNV [VXL-6, STPPVHNV, reference compound] | 1.125 | 1-1.25 | 0 | 0 | 8.3 | 3.25 | 50 | 7.56 to 11.4 | 0 | 0 | 0 | No Influence | No proliferation | 1.76 | 12.5-25 × × 10e6/well | 120 h | 1.53 | 120 h | 0 | 1.44 | TNF-Alfa (PBL [3]; [6]): 0 ng/mL; Optimal dose via PBMC (PBMC): 0.05 to 1 µg/mL
